One assay has as its target D(2) dopamine receptor (Rattus norvegicus, UniProt P61169). Kind of assay: In vitro binding affinity at Dopamine receptor D2 in rat striata using [3H]domperidone as radioligand.
The target of assay [1] is Muscarinic acetylcholine receptor. Kind of assay: In vitro binding affinity at muscarinic binding site receptors in rat brain membrane using [3H]QNB as radioligand. Type of assay: cell membranes.
Assay [2] concerns the target Glutamate receptor ionotropic, kainate. Kind of assay: In vitro binding affinity at Ionotropic glutamate receptor ionotropic kainate in rat brain membrane using [3H]kainate as radioligand. It counts as cell membranes.
In assay [3] the target is T1, Adrenergic receptor beta (Rattus norvegicus, UniProt P18090+P10608+P26255). Kind of assay: In vitro binding affinity at beta adrenergic receptor binding site receptors in rat brain membrane using [3H]dihydroalprenolol as radioligand. It counts as cell membranes.
A further assay addresses D(1A) dopamine receptor (Rattus norvegicus, UniProt P18901). Briefly: In vitro binding affinity at Dopamine receptor D1 using [3H]SCH-23390 as radioligand.
Assay [4] has as its target T2, Glutamate receptor ionotropic, AMPA (Rattus norvegicus, UniProt P19490+P19491+P19492+P19493). Kind of assay: In vitro binding affinity at quisqualate binding site of quisqualate/AMPA glutamate receptors in rat brain membrane using [3H]- ]AMPA as radioligand. Type of assay: cell membranes.
Assay [5] deals with Muscarinic acetylcholine receptor. Briefly: In vitro binding affinity at Muscarinic acetylcholine receptor in rat brain membrane using [3H]QNB as radioligand. Type of assay: cell membranes.
In assay [6] the target is Glutamate receptor ionotropic, kainate. Briefly: In vitro binding affinity at Ionotropic glutamate receptor kainate in rat brain membrane using [3H]kainate as radioligand. It counts as cell membranes.
Assay [7] concerns the target T1, Adrenergic receptor beta. Kind of assay: In vitro binding affinity at Beta adrenergic receptor in rat brain membrane using [3H]dihydroalprenolol as radioligand. Type of assay: cell membranes.
Assay [8] concerns the target T2, Glutamate receptor ionotropic, AMPA. Briefly: In vitro binding affinity at quisqualate binding site of quisqualate/AMPA glutamate receptors in rat brain membrane using [3H]AMPA as radioligand. Type of assay: cell membranes.

Bounds are passed on as bounds.

D(2) dopamine receptor, sequence (P61169 whole entry): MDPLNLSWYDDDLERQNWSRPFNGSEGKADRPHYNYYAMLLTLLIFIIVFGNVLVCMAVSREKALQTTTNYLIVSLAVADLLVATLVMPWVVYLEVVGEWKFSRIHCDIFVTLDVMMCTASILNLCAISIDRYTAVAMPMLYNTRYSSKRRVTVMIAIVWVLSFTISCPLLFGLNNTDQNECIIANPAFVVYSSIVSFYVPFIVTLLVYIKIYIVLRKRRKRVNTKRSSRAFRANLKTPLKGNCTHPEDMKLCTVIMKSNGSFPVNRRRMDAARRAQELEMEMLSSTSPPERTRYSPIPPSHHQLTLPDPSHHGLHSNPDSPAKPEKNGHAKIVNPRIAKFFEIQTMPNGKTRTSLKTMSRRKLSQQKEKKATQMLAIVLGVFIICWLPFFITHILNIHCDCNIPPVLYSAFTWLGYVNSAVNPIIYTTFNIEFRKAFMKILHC
D(1A) dopamine receptor, sequence (P18901 whole entry): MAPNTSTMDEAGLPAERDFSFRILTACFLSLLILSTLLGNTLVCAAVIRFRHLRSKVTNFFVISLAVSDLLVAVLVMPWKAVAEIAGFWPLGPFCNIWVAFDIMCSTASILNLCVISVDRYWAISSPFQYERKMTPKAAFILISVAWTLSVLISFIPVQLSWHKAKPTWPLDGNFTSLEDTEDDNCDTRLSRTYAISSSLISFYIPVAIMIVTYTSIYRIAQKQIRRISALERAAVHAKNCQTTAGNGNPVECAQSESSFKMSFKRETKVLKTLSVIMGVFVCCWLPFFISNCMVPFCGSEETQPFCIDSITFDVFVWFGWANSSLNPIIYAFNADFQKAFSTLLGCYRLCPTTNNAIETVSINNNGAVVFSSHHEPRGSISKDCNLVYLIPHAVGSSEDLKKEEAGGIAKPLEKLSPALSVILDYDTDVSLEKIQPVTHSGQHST

Turning to `CC(Cc1ccc(I)cc1)NCCCc1ccccc1` (centres undefined), the 50% inhibitory concentration (IC50) at D(2) dopamine receptor was 3.8 µM; in assay [1], greater than 10 µM; in assay [2], greater than 10 µM; at Adrenergic receptor beta [3] it was 5.57 µM; at D(1A) dopamine receptor, greater than 10 µM; in assay [4], greater than 10 µM.

On to `c1ccc(CCCNC2CCc3ccccc3CC2)cc1`, for which the half-maximal inhibitory concentration (IC50) is 5.8 µM on D(2) dopamine receptor; 9.5 µM in assay [5]; greater than 10 µM in assay [6]; greater than 10 µM on D(1A) dopamine receptor; greater than 10 µM in assay [4]; greater than 10 µM at Adrenergic receptor beta [7].

As to `CC(Cc1ccc(Cl)c(Cl)c1)NCCCc1ccccc1` (centres undefined), the IC50 at D(2) dopamine receptor is 1.79 µM; in [5], 7.4 µM; in assay [6], greater than 10 µM; on D(1A) dopamine receptor, greater than 10 µM; in assay [4], greater than 10 µM; on Adrenergic receptor beta [7], 1.24 µM.

For the compound `COc1ccc(CC(C)NCCCc2ccccc2)cc1` (centres undefined), the IC50 is 9.32 µM on D(2) dopamine receptor; greater than 10 µM in assay [1]; greater than 10 µM in assay [2]; greater than 10 µM in assay [8]; 4.94 µM on Adrenergic receptor beta [3]; greater than 10 µM at D(1A) dopamine receptor.

For the origin of these results see ChEMBL document CHEMBL1125260, “Binding of substituted and conformationally restricted derivatives of N-(3-phenyl-n-propyl)-1-phenyl-2-aminopropane at sigma-receptors” (J Med Chem, 1991).
